Results: patent US12370159B2, “Compositions and methods of use of beta-hydroxy-beta-methylbutyrate (HMB) and probiotics” (priority 2016, dated 2025)

Legend:
[1] = after HMB is fed; cited from earlier work
[2] = healthy young or old adults; cited from earlier work
[3] = HMB kinetics before and after two weeks of BC30 probiotic supplementation (Example 2)

Row | Compound | Loss of HMB to urine [1] | Side effects [2] | Probiotic-induced increase in peak plasma HMB levels, CaHMB compared with HMB-FA [3]
1 | CC(C)(O)CC(=O)O [HMB, β-hydroxy-β-methylbutyric acid] | 20-50% | no side effects | –
2 | Calcium β-Hydroxy-β-Methylbutyrate [CaHMB] | – | – | larger
